# Data: patent publication EP4667458A1 (Kanaph Therapeutics Inc., priority 2023, dated 2024)
# pIC50: −log10 of the molar value.
# Target: T1, KRAS^G12C::SOS1 (Homo sapiens, UniProt Q07889)
# T1 sequence (Q07889 1-1333): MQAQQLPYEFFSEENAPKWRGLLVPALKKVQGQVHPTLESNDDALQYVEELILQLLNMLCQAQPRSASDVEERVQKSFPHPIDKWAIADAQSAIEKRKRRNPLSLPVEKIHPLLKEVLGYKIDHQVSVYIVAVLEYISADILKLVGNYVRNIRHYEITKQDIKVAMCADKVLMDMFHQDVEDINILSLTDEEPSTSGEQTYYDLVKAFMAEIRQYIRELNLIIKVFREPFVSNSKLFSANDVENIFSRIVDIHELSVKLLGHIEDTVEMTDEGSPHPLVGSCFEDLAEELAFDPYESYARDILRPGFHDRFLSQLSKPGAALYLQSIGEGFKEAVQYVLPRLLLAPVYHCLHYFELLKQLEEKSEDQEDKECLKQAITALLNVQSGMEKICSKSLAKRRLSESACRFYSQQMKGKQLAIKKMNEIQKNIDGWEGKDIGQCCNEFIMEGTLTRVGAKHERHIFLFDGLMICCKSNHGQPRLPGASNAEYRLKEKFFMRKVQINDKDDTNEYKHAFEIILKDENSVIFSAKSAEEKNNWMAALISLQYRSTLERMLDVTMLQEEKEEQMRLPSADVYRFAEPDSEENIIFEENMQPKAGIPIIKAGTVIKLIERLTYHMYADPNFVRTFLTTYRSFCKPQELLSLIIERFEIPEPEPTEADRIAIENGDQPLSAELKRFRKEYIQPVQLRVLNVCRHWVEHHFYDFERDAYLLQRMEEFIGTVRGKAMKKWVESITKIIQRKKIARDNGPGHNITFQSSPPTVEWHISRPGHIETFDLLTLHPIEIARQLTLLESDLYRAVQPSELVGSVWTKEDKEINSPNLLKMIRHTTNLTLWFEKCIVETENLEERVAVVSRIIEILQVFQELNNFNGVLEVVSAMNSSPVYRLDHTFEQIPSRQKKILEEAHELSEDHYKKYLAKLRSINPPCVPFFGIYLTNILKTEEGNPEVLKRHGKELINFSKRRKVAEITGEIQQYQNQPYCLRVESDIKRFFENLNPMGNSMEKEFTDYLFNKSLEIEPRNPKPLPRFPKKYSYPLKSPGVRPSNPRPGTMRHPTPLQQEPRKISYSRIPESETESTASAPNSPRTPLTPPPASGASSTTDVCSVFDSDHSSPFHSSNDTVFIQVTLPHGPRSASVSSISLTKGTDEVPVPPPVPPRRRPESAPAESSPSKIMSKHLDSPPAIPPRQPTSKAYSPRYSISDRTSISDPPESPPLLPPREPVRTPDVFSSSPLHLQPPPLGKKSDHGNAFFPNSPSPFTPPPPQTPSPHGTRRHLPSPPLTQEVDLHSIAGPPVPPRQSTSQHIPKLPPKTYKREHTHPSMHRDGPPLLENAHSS
# Test: KRAS G12C::SOS1 protein-protein interaction (PPI) inhibition assay (HTRF binding kit)
row,SMILES,pIC50
1,"C[C@@H](NC(=O)c1ccc(=O)n(-c2ccncc2F)n1)c1cccc(C(F)(F)CO)c1F [Example 361, N-[(1R)-1-[3-(1,1-difluoro-2-hydroxy-ethyl)-2-fluoro-phenyl]ethyl]-1-(3-fluoro-4-pyridyl)-6-oxo-pyridazine-3-carboxamide]",> 6.00
2,"C[C@@H](NC(=O)c1ccc(=O)n(-c2ccc(F)cc2F)n1)c1cc(N)cc(C(F)(F)F)c1 [Example 362, N-[(1R)-1-[3-amino-5-(trifluoromethyl)phenyl]ethyl]-1-(2,4-difluorophenyl)-6-oxo-pyridazine-3-carboxamide]",> 6.00
3,"C[C@@H](NC(=O)c1nn(-c2ccccc2F)c(=O)cc1O)c1cc(N)cc(C(F)(F)F)c1 [Example 363, N-[(1R)-1-[3-amino-5-(trifluoromethyl)phenyl]ethyl]-1-(2-fluorophenyl)-4-hydroxy-6-oxo-pyridazine-3-carboxamide]",< 5.00
4,"C[C@@H](NC(=O)c1nn(-c2ccccc2F)c(=O)cc1OCc1ccccc1)c1cccc(C(F)(F)CO)c1F [Example 364, 4-benzyloxy-N-[(1R)-1-[3-(1,1-difluoro-2-hydroxy-ethyl)-2-fluorophenyl]ethyl]-1-(2-fluorophenyl)-6-oxo-pyridazine-3-carboxamide]",5.00 to 6.00
5,"C[C@@H](NC(=O)c1nn(-c2ccccc2F)c(=O)cc1O)c1cccc(C(F)(F)CO)c1F [Example 365, N-[(1R)-1-[3-(1,1-difluoro-2-hydroxy-ethyl)-2-fluoro-phenyl]ethyl]-1-(2-fluorophenyl)-4-hydroxy-6-oxo-pyridazine-3-carboxamide]",< 5.00
6,"COc1ccc(-n2nc(C(=O)N[C@H](C)c3cccc(C(F)(F)CO)c3F)c(C3CC3)cc2=O)c(F)c1 [Example 366, 4-cyclopropyl-N-[(1R)-1-[3-(1,1-difluoro-2-hydroxy-ethyl)-2-fluorophenyl]ethyl]-1-(2-fluoro-4-methoxy-phenyl)-6-oxopyridazine-3-carboxamide]",5.00 to 6.00
7,"COc1ccc(-n2nc(C(=O)N[C@H](C)c3cc(N)cc(C(F)(F)F)c3)c(C3CC3)cc2=O)c(F)c1 [Example 367, N-[(1R)-1-[3-amino-5-(trifluoromethyl)phenyl]ethyl]-4-cyclopropyl-1-(2-fluoro-4-methoxy-phenyl)-6-oxo-pyridazine-3-carboxamide]",5.00 to 6.00
8,"C[C@@H](NC(=O)c1nn(-c2ccccc2)c(=O)cc1-c1ccccc1)c1cc(N)cc(C(F)(F)F)c1 [Example 368, N-[(1R)-1-[3-amino-5-(trifluoromethyl)phenyl]ethyl]-6-oxo-1,4-diphenyl-pyridazine-3-carboxamide]",> 6.00
9,"C[C@@H](NC(=O)c1ccc(=O)n(-c2cccc(-c3cnnn3C)c2)n1)c1cc(N)cc(C(F)(F)F)c1 [Example 369, N-[(1R)-1-[3-amino-5-(trifluoromethyl)phenyl]ethyl]-1-[3-(3-methyltriazol-4-yl)phenyl]-6-oxo-pyridazine-3-carboxamide]",> 6.00
10,"C[C@@H](NC(=O)c1ccc(=O)n(-c2cc(-c3cnnn3C)ccc2F)n1)c1cccc(C(F)(F)CO)c1F [Example 372, N-[(1R)-1-[3-(1,1-difluoro-2-hydroxy-ethyl)-2-fluoro-phenyl]ethyl]-1-[2-fluoro-5-(3-methyltriazol-4-yl)phenyl]-6-oxo-pyridazine-3-carboxamide]",> 6.00
11,"Cc1nnnn1-c1cccc(-n2nc(C(=O)N[C@H](C)c3cc(N)cc(C(F)(F)F)c3)ccc2=O)c1 [Example 373, N-[(1R)-1-[3-amino-5-(trifluoromethyl)phenyl]ethyl]-1-[3-(5-methyltetrazol-1-yl)phenyl]-6-oxo-pyridazine-3-carboxamide]",> 6.00
12,"Cc1nnnn1-c1cccc(-n2cc(C(=O)N[C@H](C)c3cc(N)cc(C(F)(F)F)c3)ccc2=O)c1 [Example 374, N-[(1R)-1-[3-amino-5-(trifluoromethyl)phenyl]ethyl]-1-[3-(5-methyltetrazol-1-yl)phenyl]-6-oxo-pyridine-3-carboxamide]",> 6.00
13,"C[C@@H](NC(=O)c1ccc(=O)n(-c2ccccc2F)n1)c1cc(N)cc(C(F)F)c1 [Example 375, N-[(1R)-1-[3-amino-5-(difluoromethyl)phenyl]ethyl]-1-(2-fluorophenyl)-6-oxo-pyridazine-3-carboxamide]",> 6.00
14,"C[C@@H](NC(=O)c1ccc(=O)n(-c2cccc(-c3ccon3)c2)n1)c1cc(N)cc(C(F)(F)F)c1 [Example 376, N-[(1R)-1-[3-amino-5-(trifluoromethyl)phenyl]ethyl]-1-(3-isoxazol-3-ylphenyl)-6-oxo-pyridazine-3-carboxamide]",> 6.00
15,"C[C@@H](NC(=O)c1nn(-c2ccccc2F)c(=O)cc1N)c1cccc(C(F)(F)CO)c1F [Example 379, 4-amino-N-[(1R)-1-[3-(1,1-difluoro-2-hydroxy-ethyl)-2-fluorophenyl]ethyl]-1-(2-fluorophenyl)-6-oxo-pyridazine-3-carboxamide]",> 6.00
16,"CC(=O)Nc1cc(=O)n(-c2ccccc2F)nc1C(=O)N[C@H](C)c1cccc(C(F)(F)COC(C)=O)c1F [Example 380, [2-[3-[(1R)-1-[[4-acetamido-1-(2-fluorophenyl)-6-oxo-pyridazine-3-carbonyl]amino]ethyl]-2-fluoro-phenyl]-2,2-difluoro-ethyl] acetate]",> 6.00
17,"C[C@@H](NC(=O)c1nn(-c2ccccc2F)c(=O)cc1N)c1cc(N)cc(C(F)(F)F)c1 [Example 381, 4-amino-N-[(1R)-1-[3-amino-5-(trifluoromethyl)phenyl]ethyl]-1-(2-fluorophenyl)-6-oxo-pyridazine-3-carboxamide]",> 6.00
18,"CC(=O)Nc1cc(=O)n(-c2ccccc2F)nc1C(=O)N[C@H](C)c1cc(N)cc(C(F)(F)F)c1 [Example 382, 4-acetamido-N-[(1R)-1-[3-amino-5-(trifluoromethyl)phenyl]ethyl]-1-(2-fluorophenyl)-6-oxo-pyridazine-3-carboxamide]",> 6.00
19,"CNc1cc(=O)n(-c2ccccc2F)nc1C(=O)N[C@H](C)c1cc(N)cc(C(F)(F)F)c1 [Example 383, N-[(1R)-1-[3-amino-5-(trifluoromethyl)phenyl]ethyl]-1-(2-fluorophenyl)-4-(methylamino)-6-oxo-pyridazine-3-carboxamide]",> 6.00
20,"C[C@@H](NC(=O)c1nn(-c2ccccc2F)c(=O)cc1NS(C)(=O)=O)c1cc(N)cc(C(F)(F)F)c1 [Example 384, N-[(1R)-1-[3-amino-5-(trifluoromethyl)phenyl]ethyl]-1-(2-fluorophenyl)-4-(methanesulfonamido)-6-oxo-pyridazine-3-carboxamide]",> 6.00
21,"Cc1ncc(-n2nc(C(=O)N[C@H](C)c3cc(N)cc(C(F)(F)F)c3)ccc2=O)s1 [Example 385, N-[(1R)-1-[3-amino-5-(trifluoromethyl)phenyl]ethyl]-1-(2-methylthiazol-5-yl)-6-oxo-pyridazine-3-carboxamide]",> 6.00
22,"Cc1nc(-n2nc(C(=O)N[C@H](C)c3cc(N)cc(C(F)(F)F)c3)ccc2=O)cs1 [Example 386, N-[(1R)-1-[3-amino-5-(trifluoromethyl)phenyl]ethyl]-1-(2-methylthiazol-4-yl)-6-oxo-pyridazine-3-carboxamide]",> 6.00
23,"C[C@@H](NC(=O)c1ccc(=O)n(-c2ccn(C)n2)n1)c1cc(N)cc(C(F)(F)F)c1 [Example 387, N-[(1R)-1-[3-amino-5-(trifluoromethyl)phenyl]ethyl]-1-(1-methylpyrazol-3-yl)-6-oxo-pyridazine-3-carboxamide]",> 6.00
